Among the data in ChEMBL document CHEMBL5726109, “Histone deacetylase inhibitors and compositions and methods of use thereof” (2017) are IC50 values, retold here.

For the assay, the target named is Histone deacetylase 4 (Homo sapiens, UniProt P56524). In words: Inhibition Assay: 2 μl (200×) of each diluted solution and each control (full activity: 100% DMSO alone or full inhibition 1 mM) is stamped into V-bottomed polypropylene 384-well compound plates using either the Bravo (384-well head from Agilent) or 12.5 μl 16-channel Matrix multi-channel pipette (Matrix Technologies Ltd).
Histone deacetylase 4, sequence (P56524 whole entry): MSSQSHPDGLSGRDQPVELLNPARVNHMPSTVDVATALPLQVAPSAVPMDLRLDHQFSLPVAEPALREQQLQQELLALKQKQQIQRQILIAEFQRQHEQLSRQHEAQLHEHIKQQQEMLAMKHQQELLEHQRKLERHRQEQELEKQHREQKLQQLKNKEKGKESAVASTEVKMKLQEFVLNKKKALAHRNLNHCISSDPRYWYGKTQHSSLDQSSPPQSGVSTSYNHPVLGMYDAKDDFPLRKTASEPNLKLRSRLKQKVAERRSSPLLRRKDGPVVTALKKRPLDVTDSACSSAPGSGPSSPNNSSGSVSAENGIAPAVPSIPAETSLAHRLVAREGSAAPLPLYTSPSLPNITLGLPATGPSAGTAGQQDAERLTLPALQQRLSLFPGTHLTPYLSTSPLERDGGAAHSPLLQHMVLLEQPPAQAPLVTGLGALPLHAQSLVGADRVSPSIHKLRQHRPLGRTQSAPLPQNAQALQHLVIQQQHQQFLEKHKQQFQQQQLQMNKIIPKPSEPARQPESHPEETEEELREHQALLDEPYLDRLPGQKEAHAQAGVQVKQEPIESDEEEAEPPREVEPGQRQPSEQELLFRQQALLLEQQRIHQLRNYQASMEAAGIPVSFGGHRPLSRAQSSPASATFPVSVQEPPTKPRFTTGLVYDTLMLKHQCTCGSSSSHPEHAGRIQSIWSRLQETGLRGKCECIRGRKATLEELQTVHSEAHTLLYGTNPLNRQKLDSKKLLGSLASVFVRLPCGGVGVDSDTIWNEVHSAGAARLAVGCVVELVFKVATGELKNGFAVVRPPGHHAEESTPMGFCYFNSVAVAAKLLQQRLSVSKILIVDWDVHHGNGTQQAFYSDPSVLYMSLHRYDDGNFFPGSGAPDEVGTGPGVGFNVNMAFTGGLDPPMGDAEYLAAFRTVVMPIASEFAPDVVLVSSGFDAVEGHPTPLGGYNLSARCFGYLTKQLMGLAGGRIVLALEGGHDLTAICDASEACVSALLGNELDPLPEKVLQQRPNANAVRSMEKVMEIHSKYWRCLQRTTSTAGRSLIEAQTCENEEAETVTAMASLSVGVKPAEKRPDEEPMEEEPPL

Structures are written as SMILES.

For orientation: IC50 means the midpoint of a concentration-inhibition curve. Lower therefore signals greater potency in that assay. Consider `Cc1c(F)cccc1[C@@]1(C(=O)NO)C=C(c2cnccn2)CC1`, for which half-maximal inhibition (IC50) required 2.4 µM.
